Our source for the T/C values is PubChem BioAssay AID330 (DTP/NCI, 2004).

The structures appear in SMILES notation. Where “and” joins values, the source holds several entries; their conditions need not be identical. Identical values can stand only once. Inconclusive results and toxic doses are left out.

The assay relates to P388 leukemia ip, CD2F1 mice, survival T/C. Kind of assay: NCI In Vivo Anticancer Drug Screen. Data for tumor model P388 Leukemia (intraperitoneal) in CD2F1 (CDF1) mice. The conditions noted are these: endpoint: median survival time, higher = longer survival. The essentials: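 Mice carrying the transplanted tumor received test compound or vehicle. Survival was recorded in each group, and the value is the treated-group measurement divided by that of the vehicle-treated control group.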

[1] abbreviates: dose: 100.0 mg/kg/injection, schedule: Q01DX009 (ip), vehicle: saline with Tween-80.
The mark [2] stands for this setting: dose: 200.0 mg/kg/injection, schedule: Q01DX009 (ip), vehicle: saline with Tween-80.
The mark [3] stands for this setting: dose: 50.0 mg/kg/injection, schedule: Q01DX005 (ip), vehicle: Klucel (hydroxypropylcellulose) (HPC).
[4] abbreviates: dose: 100.0 mg/kg/injection, schedule: Q01DX005 (ip), vehicle: Klucel (hydroxypropylcellulose) (HPC).
Where [5] appears, read: dose: 6.25 mg/kg/injection, schedule: Q01DX009 (ip), vehicle: Klucel (hydroxypropylcellulose) (HPC).
The mark [6] stands for this setting: dose: 12.5 mg/kg/injection, schedule: Q01DX009 (ip), vehicle: Klucel (hydroxypropylcellulose) (HPC).
Setting [7] is: dose: 25.0 mg/kg/injection, schedule: Q01DX009 (ip), vehicle: Klucel (hydroxypropylcellulose) (HPC).
Where [8] appears, read: dose: 50.0 mg/kg/injection, schedule: Q01DX005 (ip), vehicle: saline with Tween-80.
Where [9] appears, read: dose: 100.0 mg/kg/injection, schedule: Q01DX005 (ip), vehicle: saline with Tween-80.
The mark [10] stands for this setting: dose: 200.0 mg/kg/injection, schedule: Q01DX005 (ip), vehicle: saline with Tween-80.
Where [11] appears, read: dose: 25.0 mg/kg/injection, schedule: Q01DX009 (ip), vehicle: saline.
Where [12] appears, read: dose: 50.0 mg/kg/injection, schedule: Q01DX009 (ip), vehicle: saline.
The mark [13] stands for this setting: dose: 100.0 mg/kg/injection, schedule: Q01DX009 (ip), vehicle: saline.

As for `Cn1c2nc(=O)n(-c3ccccc3)c(=O)c-2nc2c1CCCC2`, the T/C is 100 % of control (dose: 3.13 mg/kg/injection, schedule: Q01DX009 (ip), vehicle: saline with Tween-80); 106 % of control and 109 % of control (dose: 6.25 mg/kg/injection, schedule: Q01DX009 (ip), vehicle: saline with Tween-80); 106 % of control and 116 % of control (dose: 12.5 mg/kg/injection, schedule: Q01DX009 (ip), vehicle: saline with Tween-80); 110 % of control (dose: 50.0 mg/kg/injection, schedule: Q01DX009 (ip), vehicle: saline with Tween-80); 115 % of control under setting [1]; 116 % of control under setting [2].
In the case of `Nc1nc(=O)nc2[nH]c3c4cccc5cccc(c3nc12)c54` (tested in a mixture with another compound), the T/C runs as follows: (dose: 12.5 mg/kg/injection, schedule: Q01DX005 (ip), vehicle: Klucel (hydroxypropylcellulose) (HPC)) 92 % of control and 98 % of control; (dose: 25.0 mg/kg/injection, schedule: Q01DX005 (ip), vehicle: Klucel (hydroxypropylcellulose) (HPC)) 101 % of control and 104 % of control; under setting [3], 100 % of control and 106 % of control and 112 % of control; under setting [4], 116 % of control.
Regarding `CC(NNC(=S)N1CCN(c2ccccn2)CC1)c1cc2ccccc2cn1` (centres undefined), the T/C is 96 % of control (dose: 12.5 mg/kg/injection, schedule: Q04DX003 (ip), vehicle: Klucel (hydroxypropylcellulose) (HPC)); 88 % of control (dose: 25.0 mg/kg/injection, schedule: Q04DX003 (ip), vehicle: Klucel (hydroxypropylcellulose) (HPC)); 88 % of control (dose: 50.0 mg/kg/injection, schedule: Q04DX003 (ip), vehicle: Klucel (hydroxypropylcellulose) (HPC)); 86 % of control (dose: 400.0 mg/kg/injection, schedule: Q04DX003 (ip), vehicle: Klucel (hydroxypropylcellulose) (HPC)).
With `O=C(O)/C=N/OCc1cc2c(cc1Cl)OCO2`, the T/C reads like this: (dose: 50.0 mg/kg/injection, schedule: Q04DX003 (ip), vehicle: saline sonified) 100 % of control; (dose: 100.0 mg/kg/injection, schedule: Q04DX003 (ip), vehicle: saline sonified) 100 % of control; (dose: 200.0 mg/kg/injection, schedule: Q04DX003 (ip), vehicle: saline sonified) 105 % of control.
Turning to `C=CCCCCCCCCCSC(=N)N`, the T/C was 98 % of control under setting [5], 93 % of control under setting [6] and 99 % of control under setting [7].
In the case of `COc1ccc2c(c1)CC/C(=C\C1(Sc3ccccc3)CC1)C2O` (centres undefined), the T/C by setting is: under setting [8], 102 % of control; under setting [9], 102 % of control; under setting [10], 98 % of control.
As for `COC(=O)CCCC1=NCCS1`, the T/C is 103 % of control under setting [8], 103 % of control under setting [9] and 112 % of control under setting [10].
`COC1C(/C=C2\CC(=O)N(c3ccccc3)C2=O)OC2OC(C)(C)OC21` (centres undefined): the T/C was 97 % of control (dose: 100.0 mg/kg/injection, schedule: Q01DX001 (ip), vehicle: suspension in saline); 102 % of control (dose: 200.0 mg/kg/injection, schedule: Q01DX001 (ip), vehicle: suspension in saline); 100 % of control (dose: 400.0 mg/kg/injection, schedule: Q01DX001 (ip), vehicle: suspension in saline).
For `COCC1OC(OC2OCC3OC4(OCC(O)(C(C)OC)C5OCOC54)OC3C2OC)C(OC)C(O)C1OC1OC(C)C(OC)C(OC2OC(C)C3OC4(CC(O)C(OC5CC(OC6CC(C)([N+](=O)[O-])C(OC)C(C)O6)C(OC(=O)c6c(C)c(Cl)c(O)c(Cl)c6OC)C(C)O5)C(C)O4)OC3(C)C2O)C1O` (centres undefined), the T/C is 118 % of control (dose: 12.5 mg/kg/injection, schedule: Q01DX009 (ip), vehicle: saline); 103 % of control under setting [11]; 98 % of control under setting [12]; 105 % of control under setting [13].
`O=C1c2ccccc2C(O)N1CCc1c[nH]c2ccccc12` (centres undefined): the T/C was 93 % of control under setting [3]; 95 % of control under setting [4]; 91 % of control (dose: 200.0 mg/kg/injection, schedule: Q01DX005 (ip), vehicle: Klucel (hydroxypropylcellulose) (HPC)).
As to `O=C(O)/C(=C\c1c(Cl)n(-c2ccccc2)c2ccccc12)NC(=O)c1ccccc1`, the T/C by setting is: (dose: 100.0 mg/kg/injection, schedule: Q01DX001 (ip), vehicle: saline with Tween-80) 92 % of control; (dose: 200.0 mg/kg/injection, schedule: Q01DX001 (ip), vehicle: saline with Tween-80) 88 % of control.
As to `CC1C2=C(CN(C)CC2)c2ccccc21` (centres undefined), the T/C reads like this: (dose: 12.5 mg/kg/injection, schedule: Q01DX005 (ip), vehicle: saline with Tween-80) 100 % of control; (dose: 25.0 mg/kg/injection, schedule: Q01DX005 (ip), vehicle: saline with Tween-80) 96 % of control; under setting [8], 105 % of control.
Regarding `COC(=O)Nc1cccc(-c2nc3ccc(NC(=O)OC)cc3c(=O)n2-c2ccccc2)c1`, the T/C was 111 % of control under setting [5]; 109 % of control and 92 % of control (dose: 8.0 mg/kg/injection, schedule: Q01DX005 (oral), vehicle: Klucel (hydroxypropylcellulose) (HPC)); 112 % of control under setting [6]; 110 % of control and 111 % of control (dose: 16.0 mg/kg/injection, schedule: Q01DX005 (oral), vehicle: Klucel (hydroxypropylcellulose) (HPC)); 108 % of control (dose: 16.0 mg/kg/injection, schedule: Q01DX005 (oral), vehicle: saline); 153 % of control under setting [7]. For the same compound, the T/C under setting [11] is 110 % of control; the T/C (dose: 25.0 mg/kg/injection, schedule: Q01DX009 (oral), vehicle: Klucel (hydroxypropylcellulose) (HPC)) was 114 % of control; the T/C (dose: 32.0 mg/kg/injection, schedule: Q01DX005 (oral), vehicle: Klucel (hydroxypropylcellulose) (HPC)) is 112 % of control; the T/C (dose: 32.0 mg/kg/injection, schedule: Q01DX005 (oral), vehicle: saline) is 121 % of control; the T/C under setting [12] is 236 % of control; the T/C (dose: 50.0 mg/kg/injection, schedule: Q01DX009 (oral), vehicle: Klucel (hydroxypropylcellulose) (HPC)) is 118 % of control. Further, the T/C reads like this: (dose: 64.0 mg/kg/injection, schedule: Q01DX005 (oral), vehicle: Klucel (hydroxypropylcellulose) (HPC)) 102 % of control; under setting [13], 202 % of control and 236 % of control; (dose: 128.0 mg/kg/injection, schedule: Q01DX005 (oral), vehicle: Klucel (hydroxypropylcellulose) (HPC)) 102 % of control; (dose: 128.0 mg/kg/injection, schedule: Q01DX005 (oral), vehicle: saline) 171 % of control; (dose: 150.0 mg/kg/injection, schedule: Q01DX009 (ip), vehicle: saline) 236 % of control; (dose: 200.0 mg/kg/injection, schedule: Q01DX009 (oral), vehicle: Klucel (hydroxypropylcellulose) (HPC)) 181 % of control. Besides, the T/C (dose: 400.0 mg/kg/injection, schedule: Q01DX009 (oral), vehicle: Klucel (hydroxypropylcellulose) (HPC)) is 183 % of control and the T/C (dose: 800.0 mg/kg/injection, schedule: Q01DX009 (oral), vehicle: Klucel (hydroxypropylcellulose) (HPC)) was 205 % of control.
In the case of `NC(=Nc1ccc(Cl)cc1)NN=C(c1ccc(Cl)cc1)c1ccc(Cl)cc1`, the T/C was 104 % of control (dose: 25.0 mg/kg/injection, schedule: Q04DX002 (ip), vehicle: saline with Tween-80); 101 % of control (dose: 50.0 mg/kg/injection, schedule: Q04DX002 (ip), vehicle: saline with Tween-80); 102 % of control (dose: 100.0 mg/kg/injection, schedule: Q04DX002 (ip), vehicle: saline with Tween-80); 100 % of control (dose: 200.0 mg/kg/injection, schedule: Q04DX002 (ip), vehicle: saline with Tween-80); 113 % of control (dose: 400.0 mg/kg/injection, schedule: Q04DX002 (ip), vehicle: saline with Tween-80).
`Nc1ccccc1SC1CC(=O)N(c2ccc(Cl)cc2)C1=O` (centres undefined): the T/C runs as follows: under setting [1], 105 % of control; under setting [2], 110 % of control; (dose: 400.0 mg/kg/injection, schedule: Q01DX009 (ip), vehicle: saline with Tween-80) 100 % of control.
As for `CCC(C)CN1CCc2c3c(c(OC)c(OC)c2C1)CCC3` (centres undefined), the T/C is, setting by setting: (dose: 100.0 mg/kg/injection, schedule: Q04DX002 (ip), vehicle: saline) 101 % of control; (dose: 200.0 mg/kg/injection, schedule: Q04DX002 (ip), vehicle: saline) 101 % of control.
`N#CCC(=O)N/N=C(/CC1(O)C(=O)Nc2c(Cl)cc(Cl)cc21)c1ccccc1` (centres undefined): the T/C reads like this: under setting [8], 102 % of control; under setting [9], 100 % of control; under setting [10], 104 % of control.
